“And” between values parts separate entries of the source, which are not always exact repeats. Equal values may be shown once. Read-outs that look alike come from different tables or passages of the source.
Tests used:
BCL-2 G101V = experiment: Steady-state competition SPR against immobilised BIMBH3 peptide, BCL-2 G101V; assay type: binding, human; settings: for Ki: BCL-2 G101V
Experimental: SPR experiments were performed as previously described. […] The lowest concentrations used in direct binding experiments were 1 nM for BIAcore 4000 and 0.1 nM for BIAcore S200 instruments, concentrations below these were below the sensitivity thresholds for the instruments. […] Direct binding experiments were fitted to a 1:1 binding site kinetic model, fitting on and off rates, in BIAevaluation software. For competition experiments steady-state responses were determined in BIAevaluation software according to the software defaults in affinity evaluation mode averaging responses for 5 sec. […] All affinity measurements were performed in at least two independent experiments using independent protein preparations.

[1] = test system: KMS-12-PE cells expressing BCL-2 WT; experiment: CellTiter-Glo cell viability, KMS-12-PE cells overexpressing BCL-2 WT; settings: read-out: S55746 LC50, KMS-12-PE overexpressing BCL-2 WT, 24 h, mean ± SD, n = 3
Experimental: KMS-12-PE (sourced from DSMZ in 2013; Cat#ACC606) were cultured with HTRPMI with 10% fetal bovine serum. Early passages (P5-P7) after purchase were cryopreserved and thawed for the experiments. Cells beyond passage 15 were not used. Monthly tests for mycoplasma were consistently negative (MycoAlert mycoplasma detection kit; Lonza, GA, USA).
Cell viability 24 h after treatment was then determined using the CellTiter-Glo assay (Promega, Cat#G9241). […] Experiments were performed on three separate occasions; the data is shown as the means ± SD of those three independent experiments.

O=C(c1cc(-c2cc3c(cc2C(=O)N2Cc4ccccc4C[C@H]2CN2CCOCC2)OCO3)n2c1CCCC2)N(c1ccccc1)c1ccc(O)cc1 [S55746]
Raw data values in Figure 3g (SPR response) (BCL-2 G101V; S55746 concentration 40, BCL-2 concentration 60 nM, independent experiment 3): 48.7177 | Raw data values in Figure 3g (SPR response) (BCL-2 G101V; S55746 concentration 40, BCL-2 concentration 70 nM, independent experiment 1): 85.9498 | Raw data values in Figure 3g (SPR response) (BCL-2 G101V; S55746 concentration 40, BCL-2 concentration 70 nM, independent experiment 2): 301.246 | Raw data values in Figure 3g (SPR response) (BCL-2 G101V; S55746 concentration 40, BCL-2 concentration 70 nM, independent experiment 3): 49.6061 | Raw data values in Figure 3g (SPR response) (BCL-2 G101V; S55746 concentration 40, BCL-2 concentration 80 nM, independent experiment 1): 87.455 | Raw data values in Figure 3g (SPR response) (BCL-2 G101V; S55746 concentration 40, BCL-2 concentration 80 nM, independent experiment 2): 307.892 | Raw data values in Figure 3g (SPR response) (BCL-2 G101V; S55746 concentration 40, BCL-2 concentration 80 nM, independent experiment 3): 50.2962 | Raw data values in Figure 3g (SPR response) (BCL-2 G101V; S55746 concentration 40, BCL-2 concentration 100 nM, independent experiment 1): 89.2588 | Raw data values in Figure 3g (SPR response) (BCL-2 G101V; S55746 concentration 40, BCL-2 concentration 100 nM, independent experiment 2): 318.485 | Raw data values in Figure 3g (SPR response) (BCL-2 G101V; S55746 concentration 40, BCL-2 concentration 100 nM, independent experiment 3): 51.3212 | Raw data values in Figure 3g (SPR response) (BCL-2 G101V; S55746 concentration 40, BCL-2 concentration 150 nM, independent experiment 1): 91.8217 | Raw data values in Figure 3g (SPR response) (BCL-2 G101V; S55746 concentration 40, BCL-2 concentration 150 nM, independent experiment 2): 334.001 | Raw data values in Figure 3g (SPR response) (BCL-2 G101V; S55746 concentration 40, BCL-2 concentration 150 nM, independent experiment 3): 52.4759 | Raw data values in Figure 3g (SPR response) (BCL-2 G101V; S55746 concentration 40, BCL-2 concentration 200 nM, independent experiment 1): 93.5739 | Raw data values in Figure 3g (SPR response) (BCL-2 G101V; S55746 concentration 40, BCL-2 concentration 250 nM, independent experiment 2): 347.773 | Raw data values in Figure 3g (SPR response) (BCL-2 G101V; S55746 concentration 40, BCL-2 concentration 250 nM, independent experiment 3): 53.5471 | Raw data values in Figure 3g (SPR response) (BCL-2 G101V; S55746 concentration 60, BCL-2 concentration 10 nM, independent experiment 1): 47.4597 | Raw data values in Figure 3g (SPR response) (BCL-2 G101V; S55746 concentration 60, BCL-2 concentration 10 nM, independent experiment 2): 98.8052 | Raw data values in Figure 3g (SPR response) (BCL-2 G101V; S55746 concentration 60, BCL-2 concentration 20 nM, independent experiment 1): 62.0582 | Raw data values in Figure 3g (SPR response) (BCL-2 G101V; S55746 concentration 60, BCL-2 concentration 20 nM, independent experiment 2): 156.985 | Raw data values in Figure 3g (SPR response) (BCL-2 G101V; S55746 concentration 60, BCL-2 concentration 30 nM, independent experiment 1): 69.7854 | Raw data values in Figure 3g (SPR response) (BCL-2 G101V; S55746 concentration 60, BCL-2 concentration 30 nM, independent experiment 2): 196.195 | Raw data values in Figure 3g (SPR response) (BCL-2 G101V; S55746 concentration 60, BCL-2 concentration 40 nM, independent experiment 1): 76.161 | Raw data values in Figure 3g (SPR response) (BCL-2 G101V; S55746 concentration 60, BCL-2 concentration 40 nM, independent experiment 2): 224.521 | Raw data values in Figure 3g (SPR response) (BCL-2 G101V; S55746 concentration 60, BCL-2 concentration 50 nM, independent experiment 1): 79.3118 | Raw data values in Figure 3g (SPR response) (BCL-2 G101V; S55746 concentration 60, BCL-2 concentration 50 nM, independent experiment 2): 244.821 | Raw data values in Figure 3g (SPR response) (BCL-2 G101V; S55746 concentration 60, BCL-2 concentration 60 nM, independent experiment 1): 82.6237 | Raw data values in Figure 3g (SPR response) (BCL-2 G101V; S55746 concentration 60, BCL-2 concentration 60 nM, independent experiment 2): 261.933 | Raw data values in Figure 3g (SPR response) (BCL-2 G101V; S55746 concentration 60, BCL-2 concentration 70 nM, independent experiment 1): 84.8163 | Raw data values in Figure 3g (SPR response) (BCL-2 G101V; S55746 concentration 60, BCL-2 concentration 70 nM, independent experiment 2): 275.69 | Raw data values in Figure 3g (SPR response) (BCL-2 G101V; S55746 concentration 60, BCL-2 concentration 80 nM, independent experiment 1): 85.9361 | Raw data values in Figure 3g (SPR response) (BCL-2 G101V; S55746 concentration 60, BCL-2 concentration 80 nM, independent experiment 2): 286.55 | Raw data values in Figure 3g (SPR response) (BCL-2 G101V; S55746 concentration 60, BCL-2 concentration 100 nM, independent experiment 1): 88.8819 | Raw data values in Figure 3g (SPR response) (BCL-2 G101V; S55746 concentration 60, BCL-2 concentration 100 nM, independent experiment 2): 303.493 | Raw data values in Figure 3g (SPR response) (BCL-2 G101V; S55746 concentration 60, BCL-2 concentration 150 nM, independent experiment 1): 91.2891 | Raw data values in Figure 3g (SPR response) (BCL-2 G101V; S55746 concentration 60, BCL-2 concentration 150 nM, independent experiment 2): 325.735 | Raw data values in Figure 3g (SPR response) (BCL-2 G101V; S55746 concentration 60, BCL-2 concentration 200 nM, independent experiment 1): 93.4484 | Raw data values in Figure 3g (SPR response) (BCL-2 G101V; S55746 concentration 60, BCL-2 concentration 250 nM, independent experiment 2): 343.304 | Raw data values in Figure 3g (SPR response) (BCL-2 G101V; S55746 concentration 80, BCL-2 concentration 10 nM, independent experiment 3): 22.8907 | Raw data values in Figure 3g (SPR response) (BCL-2 G101V; S55746 concentration 80, BCL-2 concentration 20 nM, independent experiment 3): 32.1933 | Raw data values in Figure 3g (SPR response) (BCL-2 G101V; S55746 concentration 80, BCL-2 concentration 30 nM, independent experiment 3): 37.5379 | Raw data values in Figure 3g (SPR response) (BCL-2 G101V; S55746 concentration 80, BCL-2 concentration 40 nM, independent experiment 3): 41.1001 | Raw data values in Figure 3g (SPR response) (BCL-2 G101V; S55746 concentration 80, BCL-2 concentration 50 nM, independent experiment 3): 43.4737 | Raw data values in Figure 3g (SPR response) (BCL-2 G101V; S55746 concentration 80, BCL-2 concentration 60 nM, independent experiment 3): 45.424 | Raw data values in Figure 3g (SPR response) (BCL-2 G101V; S55746 concentration 80, BCL-2 concentration 70 nM, independent experiment 3): 46.908 | Raw data values in Figure 3g (SPR response) (BCL-2 G101V; S55746 concentration 80, BCL-2 concentration 80 nM, independent experiment 3): 48.0972 | Raw data values in Figure 3g (SPR response) (BCL-2 G101V; S55746 concentration 80, BCL-2 concentration 100 nM, independent experiment 3): 49.7546 | Raw data values in Figure 3g (SPR response) (BCL-2 G101V; S55746 concentration 80, BCL-2 concentration 150 nM, independent experiment 3): 51.7109 | Raw data values in Figure 3g (SPR response) (BCL-2 G101V; S55746 concentration 80, BCL-2 concentration 250 nM, independent experiment 3): 53.091 | Ki (BCL-2 G101V; read-out: S55746 KI (mean), competition vs BIMBH3 SPR surface, mean ± SD, n ≥ 2): 36 nM and 35.7 nM | Ki (BCL-2 G101V; read-out: S55746 KI, single independent experiments, independent experiments 1-3): 28.4 nM and 49.8 nM and 29 nM | CC50 [1]: 320 ± 150 nM

— article PMC6547681 (Nature Communications, 2019)
